Assay results: US8697699B2, “Imidazopyrazine SYK inhibitors” (Gilead Connecticut, Inc., priority 2008, dated 2014)
Where a name gives a salt, the structure may show the parent alone.

melting point [°C] | SMILES
188 to 215 | COc1ccc(Nc2nc(-c3cccc(C(=O)Nc4ccc(C(=O)O)cc4C)c3)cn3ccnc23)cc1OC (as salt: hydrochloride) [Example 2, 4-(3-(8-(3,4-dimethoxyphenylamino)imidazo[1,2-a]pyrazin-6-yl)benzamido)-3-methylbenzoic acid hydrochloride salt]
154 to 160 | COc1ccc(Nc2nc(-c3cccc(C(=O)Nc4ccc(C(=O)OCc5ccccc5)cc4)c3)cn3ccnc23)cc1OC [Example 3, benzyl 4-(3-(8-(3,4-dimethoxyphenylamino)imidazo[1,2-a]pyrazin-6-yl)benzamido)benzoate]
